Measured values from ChEMBL document CHEMBL2401728, “An unexpected Dimroth rearrangement leading to annelated thieno[3,2-d][1,2,3]triazolo[1,5-a]pyrimidines with potent antitumor activity” (Eur J Med Chem, 2013).

Experiments:
Format in all cases: functional
[1] = system: NCI-H322M; experiment: Cytotoxicity against human NCI-H322M cells assessed as cellular growth at 0.01 uM after 48 hrs by SRB assay relative to control
[2] = system: SR; experiment: Cytotoxicity against human SR cells assessed as cellular growth at 0.1 uM after 48 hrs by SRB assay relative to control
[3] = system: ACHN; experiment: Cytotoxicity against human ACHN cells assessed as cellular growth at 0.01 uM after 48 hrs by SRB assay relative to control
[4] = system: IGROV-1; experiment: Cytotoxicity against human IGROV1 cells assessed as cellular growth at 1 uM after 48 hrs by SRB assay relative to control
[5] = system: HL-60(TB); experiment: Cytotoxicity against human HL-60(TB) cells assessed as cellular growth at 0.01 uM after 48 hrs by SRB assay relative to control
[6] = system: A498; experiment: Cytotoxicity against human A498 cells assessed as cellular growth at 0.1 uM after 48 hrs by SRB assay relative to control
[7] = system: OVCAR-3; experiment: Cytotoxicity against human OVCAR3 cells assessed as cellular growth at 100 uM after 48 hrs by SRB assay relative to control
[8] = system: SN12C; experiment: Cytotoxicity against human SN12C cells assessed as cellular growth at 1 uM after 48 hrs by SRB assay relative to control
[9] = system: NCI-H522; experiment: Cytotoxicity against human NCI-H522 cells assessed as cellular growth at 0.01 uM after 48 hrs by SRB assay relative to control
[10] = system: HCT-15; experiment: Cytotoxicity against human HCT15 cells assessed as cellular growth at 0.1 uM after 48 hrs by SRB assay relative to control
[11] = system: RXF 393; experiment: Cytotoxicity against human RXF393 cells after 48 hrs by SRB assay; conditions: RXF 393, 48 h
[12] = Cytotoxicity against human EKVX cells assessed as cellular growth at 0.1 uM after 48 hrs by SRB assay relative to control
[13] = system: LOX IMVI; experiment: Cytotoxicity against human LOXIMVI cells assessed as cellular growth at 0.1 uM after 48 hrs by SRB assay relative to control
[14] = system: OVCAR-3; experiment: Cytotoxicity against human OVCAR3 cells assessed as cellular growth at 0.01 uM after 48 hrs by SRB assay relative to control
[15] = system: Hs-578T; experiment: Cytotoxicity against human Hs578T cells assessed as cellular growth at 10 uM after 48 hrs by SRB assay relative to control
[16] = system: LOX IMVI; experiment: Cytotoxicity against human LOXIMVI cells after 48 hrs by SRB assay
[17] = system: SF-539; experiment: Cytotoxicity against human SF539 cells after 48 hrs by SRB assay; conditions: SF-539, 48 h
[18] = system: M14; experiment: Cytotoxicity against human M14 cells assessed as cellular growth at 0.1 uM after 48 hrs by SRB assay relative to control
[19] = system: NCI-H226; experiment: Cytotoxicity against human NCI-H226 cells after 48 hrs by SRB assay; conditions: NCI-H226, 48 h
[20] = system: HOP-92; experiment: Cytotoxicity against human HOP92 cells after 48 hrs by SRB assay; conditions: HOP-92, 48 h
[21] = system: MDA-MB-468; experiment: Cytotoxicity against human MDA-MB-468 cells assessed as cellular growth at 100 uM after 48 hrs by SRB assay relative to control
[22] = system: MDA-MB-231; experiment: Cytotoxicity against human MDA-MB-231 cells assessed as cellular growth at 0.01 uM after 48 hrs by SRB assay relative to control
[23] = system: COLO 205; experiment: Cytotoxicity against human COLO205 cells after 48 hrs by SRB assay; conditions: COLO 205, 48 h
[24] = system: U-251; experiment: Cytotoxicity against human U251 cells assessed as cellular growth at 100 uM after 48 hrs by SRB assay relative to control
[25] = system: NCI-H226; experiment: Cytotoxicity against human NCI-H226 cells assessed as cellular growth at 1 uM after 48 hrs by SRB assay relative to control
[26] = system: SF-268; experiment: Cytotoxicity against human SF268 cells assessed as cellular growth at 0.01 uM after 48 hrs by SRB assay relative to control
[27] = system: 786-0; experiment: Cytotoxicity against human 786-0 cells assessed as cellular growth at 100 uM after 48 hrs by SRB assay relative to control
[28] = system: NCI-H460; experiment: Cytotoxicity against human NCI-H460 cells after 48 hrs by SRB assay; conditions: NCI-H460, 48 h
[29] = system: Malme-3M; experiment: Cytotoxicity against human MALME-3M cells assessed as cellular growth at 0.01 uM after 48 hrs by SRB assay relative to control
[30] = system: SK-OV-3; experiment: Cytotoxicity against human SKOV3 cells assessed as cellular growth at 0.01 uM after 48 hrs by SRB assay relative to control
[31] = system: M14; experiment: Cytotoxicity against human M14 cells after 48 hrs by SRB assay; conditions: M14, 48 h
[32] = Cytotoxicity against human EKVX cells assessed as cellular growth at 0.01 uM after 48 hrs by SRB assay relative to control
[33] = system: T47D; experiment: Cytotoxicity against human T47D cells after 48 hrs by SRB assay
[34] = system: A549; experiment: Cytotoxicity against human A549 cells assessed as cellular growth at 0.1 uM after 48 hrs by SRB assay relative to control
[35] = read-out: LC50 (the source's name)
[36] = read-out: pLC50 (the source's name) (converted)

CN1CCN(CCCn2c3c(sc4ncccc43)c(=O)n3nnc(-c4ccccc4)c23)CC1
Activity [1]: 97%
Activity [2]: 104%
Activity [3]: 105%
Activity [4]: 94%
Activity [5]: 98%
Activity [6]: 81%
Activity [7]: -84%
Activity [8]: 87%
Activity [9]: 96%
Activity [10]: 91%
GI50 ([11]; read-out: GI50): 1.7 µM
CC50 [11, 35]: 5.86 µM
TGI ([11]; read-out: TGI): 3.15 µM
GI50 ([11]; read-out: pGI50 (converted)): 1.7 µM
CC50 [11, 36]: 5.89 µM
TGI ([11]; read-out: pTGI (converted)): 3.16 µM
Activity [12]: 92%
Activity [13]: 88%
Activity [14]: 100%
Activity [15]: 69%
GI50 ([16]; read-out: GI50): 1.66 µM
TGI ([16]; read-out: TGI): 3.36 µM
GI50 ([16]; read-out: pGI50 (converted)): 1.66 µM
TGI ([16]; read-out: pTGI (converted)): 3.39 µM
GI50 ([17]; read-out: GI50): 1.71 µM
CC50 [17, 35]: 6.54 µM
TGI ([17]; read-out: TGI): 3.34 µM
GI50 ([17]; read-out: pGI50 (converted)): 1.7 µM
CC50 [17, 36]: 6.61 µM
TGI ([17]; read-out: pTGI (converted)): 3.31 µM
Activity [18]: 94%
GI50 ([19]; read-out: GI50): 13.9 µM
CC50 [19, 35]: 64.2 µM
TGI ([19]; read-out: TGI): 29.8 µM
GI50 ([19]; read-out: pGI50 (converted)): 13.8 µM
CC50 [19, 36]: 64.6 µM
TGI ([19]; read-out: pTGI (converted)): 29.5 µM
GI50 ([20]; read-out: GI50): 6.31 µM
CC50 [20, 35]: 70.1 µM
TGI ([20]; read-out: TGI): 24.3 µM
GI50 ([20]; read-out: pGI50 (converted)): 6.31 µM
CC50 [20, 36]: 70.8 µM
TGI ([20]; read-out: pTGI (converted)): 24.5 µM
Activity [21]: -91%
Activity [22]: 100%
GI50 ([23]; read-out: GI50): 1.63 µM
CC50 [23, 35]: 6.42 µM
TGI ([23]; read-out: TGI): 3.24 µM
GI50 ([23]; read-out: pGI50 (converted)): 1.62 µM
CC50 [23, 36]: 6.46 µM
TGI ([23]; read-out: pTGI (converted)): 3.24 µM
Activity [24]: -46%
Activity [25]: 85%
Activity [26]: 96%
Activity [27]: -58%
GI50 ([28]; read-out: GI50): 1.92 µM
CC50 [28, 35]: 8.13 µM
TGI ([28]; read-out: TGI): 3.95 µM
GI50 ([28]; read-out: pGI50 (converted)): 1.91 µM
CC50 [28, 36]: 8.13 µM
TGI ([28]; read-out: pTGI (converted)): 3.98 µM
Activity [29]: 83%
Activity [30]: 101%
GI50 ([31]; read-out: GI50): 1.87 µM
CC50 [31, 35]: 7.16 µM
TGI ([31]; read-out: TGI): 3.66 µM
GI50 ([31]; read-out: pGI50 (converted)): 1.86 µM
CC50 [31, 36]: 7.24 µM
TGI ([31]; read-out: pTGI (converted)): 3.63 µM
Activity [32]: 98%
GI50 ([33]; read-out: GI50): 19.7 µM
CC50 [33, 35]: 71.6 µM
TGI ([33]; read-out: TGI): 37.6 µM
GI50 ([33]; read-out: pGI50 (converted)): 20 µM
CC50 [33, 36]: 70.8 µM
TGI ([33]; read-out: pTGI (converted)): 38 µM
Activity [34]: 95%
